We go through two molecules from article PMC3433414, “Oral Administration of the Pimelic Diphenylamide HDAC Inhibitor HDACi 4b Is Unsuitable for Chronic Inhibition of HDAC Activity in the CNS In Vivo” (PLoS ONE, 2012).

Structures are written as SMILES.

Series [1] can be described thus: Stability in serum albumin. It is filed as in vitro ADME. As to the method:
Incubations of test compound (5 µM initial concentration, n = 2) were carried out with pooled mouse plasma or BSA (45 mg/mL in 0.1 M phosphate buffered saline). The incubations were performed at 37°C. Samples (50 µL) were obtained from the incubation at 0, 10, 30, 120, 240, 360 and 1440 min, and added to 150 µL of acetonitrile containing carbamazepine as analytical internal standard to terminate the reaction. Samples were centrifuged and the supernatant fractions analysed by LC-MS/MS.

The target of the next series is T1, B1 (h) (Homo sapiens, UniProt P46663).
T1 construct: purchased Cerep (Diversity Profile)
The series can be described thus: Cerep binding, agonist radioligand. As to conditions: read-out: % inhibition of control specific binding. The source says:
(§1) In addition to the HDAC profiling performed, we also queried 4b for any apparent potential off-target effects, which could complicate any finding of efficacy or adverse events in vivo due to ‘polypharmacy’. This was accomplished by screening against a ‘diversity panel’ of 72 binding and 29 enzyme assays, comprised of roughly equal numbers of selective central and peripheral therapeutically relevant targets (Cerep Diversity Profile). This panel included representative targets from diverse enzyme families, G protein coupled receptors, steroid nuclear receptors, voltage- and ligand-gated ion channels. While not totally inclusive, it is a useful tool for discovery compounds to assess their viability as proof of concept molecules to specifically query a particular target. 4b was initially screened at 10 µM in duplicate. The full set of results is provided as Table S1. […] This clean in vitro profile was considered acceptable to proceed to ADME and pharmacokinetic studies.

A further series deals with BZD (central). The series can be described thus: Cerep binding, agonist radioligand. As to conditions: 10 μM.
Source text: as §1

The target in another series is T2, CRF1 (h) (Homo sapiens, UniProt P34998).
T2 construct: purchased Cerep (Diversity Profile)
The series can be described thus: Cerep binding, agonist radioligand. As to conditions: read-out: % inhibition of control specific binding.
Source text: as §1

For a further series, the target named is T3, ETA (h) (Homo sapiens, UniProt P25101).
T3 construct: purchased Cerep (Diversity Profile)
The series can be described thus: Cerep binding, agonist radioligand. As to conditions: read-out: % inhibition of control specific binding.
Source text: as §1

The test system of the next series is P2X. Put plainly: Cerep binding, agonist radioligand. Conditions: 10 μM.
Source text: as §1

T2 sequence (P34998 24-415): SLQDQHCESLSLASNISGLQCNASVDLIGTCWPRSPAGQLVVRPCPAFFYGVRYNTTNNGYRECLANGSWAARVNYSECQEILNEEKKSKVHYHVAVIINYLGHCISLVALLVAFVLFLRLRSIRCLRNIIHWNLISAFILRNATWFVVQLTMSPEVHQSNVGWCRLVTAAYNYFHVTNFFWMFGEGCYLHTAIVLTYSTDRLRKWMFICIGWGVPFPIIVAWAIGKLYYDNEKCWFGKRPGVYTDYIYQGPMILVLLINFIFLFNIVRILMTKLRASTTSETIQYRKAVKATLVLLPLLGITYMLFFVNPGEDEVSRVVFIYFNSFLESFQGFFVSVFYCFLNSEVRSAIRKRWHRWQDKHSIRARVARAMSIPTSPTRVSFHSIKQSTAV
T3 sequence (P25101 21-427): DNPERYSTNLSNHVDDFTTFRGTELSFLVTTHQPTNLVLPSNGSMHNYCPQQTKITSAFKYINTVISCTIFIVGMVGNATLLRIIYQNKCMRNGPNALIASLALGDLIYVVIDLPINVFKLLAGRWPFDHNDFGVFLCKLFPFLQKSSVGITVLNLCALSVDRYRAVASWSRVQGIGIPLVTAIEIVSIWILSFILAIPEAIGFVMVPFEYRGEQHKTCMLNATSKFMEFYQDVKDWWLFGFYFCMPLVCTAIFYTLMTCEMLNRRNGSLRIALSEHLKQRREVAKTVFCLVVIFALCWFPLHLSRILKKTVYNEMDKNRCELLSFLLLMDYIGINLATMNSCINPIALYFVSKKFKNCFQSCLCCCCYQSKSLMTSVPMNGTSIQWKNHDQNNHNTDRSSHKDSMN
T1 sequence (P46663 whole entry): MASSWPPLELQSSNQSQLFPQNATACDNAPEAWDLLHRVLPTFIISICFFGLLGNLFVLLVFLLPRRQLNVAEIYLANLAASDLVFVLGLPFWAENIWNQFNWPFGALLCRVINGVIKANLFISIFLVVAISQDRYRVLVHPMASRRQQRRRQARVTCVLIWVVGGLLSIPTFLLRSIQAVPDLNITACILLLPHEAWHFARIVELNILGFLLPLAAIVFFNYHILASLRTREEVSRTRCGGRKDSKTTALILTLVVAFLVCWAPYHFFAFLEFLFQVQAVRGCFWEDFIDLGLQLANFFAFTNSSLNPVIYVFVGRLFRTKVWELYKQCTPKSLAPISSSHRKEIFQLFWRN

With `Nc1ccccc1NC(=O)CCCCCC(=O)Nc1ccccc1` [Compound 4b], the “stability in serum albumin incubations” value in series [1] is “stable”. The inhibition at 10 µM at B1 (h) came out at 5%; on CRF1 (h), 0%. The “% inhibition of control specific binding” value in the series on BZD (central) was 4%.

Consider `O=C(CCCCCc1nc2ccccc2[nH]1)Nc1ccccc1` [Compound C1, 6-(1-H-benzo[d]imidazol-2-yl)-N-phenylhexanamide], for which, on ETA (h), the inhibition at 10 µM was determined as 2%. The “% inhibition of control specific binding” value with P2X stood at 5%.

For orientation: inhibition means the share of the control response that was lost under treatment.
